The nature of data set [1]: refractive index (Na D-line) (dimensionless). Particulars: 101.33 kPa, Liquid, Standard Abbe refractometry.
The conditions of data set [2]: Liquid; for mass density: 101.33 kPa, Vibrating tube method; for Normal boiling temperature: Ebulliometric method (Recirculating still).

Molecules are shown by their SMILES. ± gives the expanded uncertainty stated by the source.

A word on the refractive index: it is a measure of how strongly the sample bends light. For orientation: mass density means the mass of a sample divided by its volume.

Take `CC(=O)c1ccccc1` [acetophenone]: the refractive index in data set [1] (293.15 K) is reported as 1.5361 ± 0.012. The mass density in data set [2] (293.15 K) was found to be 1027.9 ± 0.9 kg/m3. Moreover, the Normal boiling temperature in data set [2] worked out at 202.0 ± 0.2 °C.

For the compound `CCCC(=O)O` [butanoic acid], in data set [1] (293.15 K), the refractive index amounted to 1.3982 ± 0.012. Further, the mass density in data set [2] (298.15 K) is given as 952.6 ± 0.24 kg/m3. In addition, the Normal boiling temperature in data set [2] is 163.7 ± 0.2 °C.

Consider `CCOC(=O)CC(=O)OCC` [diethyl 1,3-propanedioate], for which the refractive index in data set [1] (293.15 K) was determined as 1.4135 ± 0.012. Also, in data set [2] (293.15 K), the mass density came out at 1055.25 ± 0.95 kg/m3. Moreover, the Normal boiling temperature in data set [2] worked out at 199.90 ± 0.2 °C.

As for `CCCC(=O)OCC` [ethyl butanoate], in data set [1] (298.15 K), the refractive index is recorded as 1.3891 ± 0.012. Also, in data set [2] (298.15 K), the mass density is 873.25 ± 0.7 kg/m3. Further, the Normal boiling temperature in data set [2] worked out at 121.40 ± 0.2 °C.

Regarding `CCCCC(=O)OCC` [ethyl pentanoate], the refractive index in data set [1] (293.15 K) was 1.4125 ± 0.012. Besides, the mass density in data set [2] (293.15 K) was found to be 877.15 ± 0.24 kg/m3. The Normal boiling temperature in data set [2] is 146.2 ± 0.2 °C.

Consider `CCCCCCCCO` [octan-1-ol], for which the refractive index in data set [1] (293.15 K) came out at 1.428 ± 0.012. Besides, the mass density in data set [2] (298.15 K) was found to be 825.95 ± 0.24 kg/m3. Also, in data set [2], the Normal boiling temperature was 195.1 ± 0.2 °C.

On to `O` [water], for which the refractive index in data set [1] (293.15 K) was determined as 1.3325 ± 0.012. For the same compound, in data set [2] (293.15 K), the mass density turned out to be 999.7 ± 0.08 kg/m3. For the same compound, the Normal boiling temperature in data set [2] stood at 100.10 ± 0.2 °C.

(Values after the NIST ThermoML archive (doi:10.1016/j.fluid.2014.03.008).)
